Source: US20260356819A1, “OXOISOINDOLINYL-SUBSTITUTED […] DERIVATIVE AND USE THEREOF” (GLUETACS THERAPEUTICS (SHANGHAI) CO., LTD., priority 2023, published 2026)

Key:
Assay type in all cases: cell-based
Conditions in all cases: compounds at 50 nM and 500 nM
IKZF3 = molecular target: T1, IKZF3 (Homo sapiens, UniProt Q96SW2+Q9UKT9); experiment: Western blot degradation of IKZF3 in hPBMCs (24 h)
T1 construct: The supernatant was aspirated as the extracted total cell protein; endogenous in cells; host or cells: human peripheral blood mononuclear cells (hPBMCs)
In short: (§1)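 Immunoblot densitometry quantifies target loss in hPBMCs after a 24 h compound exposure (50 nM, 500 nM). Percent remaining is normalised band intensity; DC50 is the concentration giving half the DMSO-control band grayscale.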

IKZF1 = molecular target: T2, IKZF1 (Homo sapiens, UniProt Q13422+Q96SW2); experiment: Western blot degradation of IKZF1 in hPBMCs (24 h)
T2 construct: The supernatant was aspirated as the extracted total cell protein; endogenous in cells; host or cells: human peripheral blood mononuclear cells (hPBMCs)
In short: as §1

GSPT1 = molecular target: T3, GSPT1 (Homo sapiens, UniProt P15170+Q96SW2); experiment: Western blot degradation of GSPT1 in hPBMCs (24 h)
T3 construct: The supernatant was aspirated as the extracted total cell protein; endogenous in cells; host or cells: human peripheral blood mononuclear cells (hPBMCs)
In short: as §1

IKZF2 = molecular target: T4, IKZF2 (Homo sapiens, UniProt Q96SW2+Q9UKS7); experiment: Western blot degradation of IKZF2 in hPBMCs (24 h)
T4 construct: The supernatant was aspirated as the extracted total cell protein; endogenous in cells; host or cells: human peripheral blood mononuclear cells (hPBMCs)
In short: as §1

CK1α = molecular target: T5, CK1α (Homo sapiens, UniProt P48729+Q96SW2); experiment: Western blot degradation of CK1α in hPBMCs (24 h)
T5 construct: The supernatant was aspirated as the extracted total cell protein; endogenous in cells; host or cells: human peripheral blood mononuclear cells (hPBMCs)
In short: as §1

WEE1 = molecular target: T6, WEE1 (Homo sapiens, UniProt P30291+Q96SW2); experiment: Western blot degradation of WEE1 in hPBMCs (24 h)
T6 construct: The supernatant was aspirated as the extracted total cell protein; endogenous in cells; host or cells: human peripheral blood mononuclear cells (hPBMCs)
In short: as §1

T1 sequence (Q9UKT9 whole entry): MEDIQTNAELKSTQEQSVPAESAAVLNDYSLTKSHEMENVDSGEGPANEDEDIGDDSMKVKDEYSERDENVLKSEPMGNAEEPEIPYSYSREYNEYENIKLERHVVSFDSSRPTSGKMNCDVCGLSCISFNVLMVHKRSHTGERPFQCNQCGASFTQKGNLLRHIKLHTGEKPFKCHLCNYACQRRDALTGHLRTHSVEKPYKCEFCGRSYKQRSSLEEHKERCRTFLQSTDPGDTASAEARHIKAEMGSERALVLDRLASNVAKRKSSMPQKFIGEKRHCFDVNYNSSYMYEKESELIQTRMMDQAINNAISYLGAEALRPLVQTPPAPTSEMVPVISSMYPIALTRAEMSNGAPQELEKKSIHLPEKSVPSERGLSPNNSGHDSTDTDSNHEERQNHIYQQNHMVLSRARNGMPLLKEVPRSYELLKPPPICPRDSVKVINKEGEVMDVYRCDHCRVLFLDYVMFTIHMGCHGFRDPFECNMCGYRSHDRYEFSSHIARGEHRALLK
T1 sequence (Q96SW2 whole entry): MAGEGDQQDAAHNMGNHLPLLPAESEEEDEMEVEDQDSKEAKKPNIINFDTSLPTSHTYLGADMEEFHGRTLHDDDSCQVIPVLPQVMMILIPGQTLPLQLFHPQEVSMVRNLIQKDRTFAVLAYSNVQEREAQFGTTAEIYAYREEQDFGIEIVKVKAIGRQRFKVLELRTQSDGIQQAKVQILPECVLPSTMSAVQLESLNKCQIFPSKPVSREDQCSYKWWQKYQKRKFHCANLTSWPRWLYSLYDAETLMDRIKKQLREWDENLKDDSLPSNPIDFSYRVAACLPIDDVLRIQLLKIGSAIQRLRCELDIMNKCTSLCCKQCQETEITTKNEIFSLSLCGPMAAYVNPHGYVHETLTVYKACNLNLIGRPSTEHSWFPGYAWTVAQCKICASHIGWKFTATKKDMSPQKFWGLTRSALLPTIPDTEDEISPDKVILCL
T1 sequence (Q16531 whole entry partner): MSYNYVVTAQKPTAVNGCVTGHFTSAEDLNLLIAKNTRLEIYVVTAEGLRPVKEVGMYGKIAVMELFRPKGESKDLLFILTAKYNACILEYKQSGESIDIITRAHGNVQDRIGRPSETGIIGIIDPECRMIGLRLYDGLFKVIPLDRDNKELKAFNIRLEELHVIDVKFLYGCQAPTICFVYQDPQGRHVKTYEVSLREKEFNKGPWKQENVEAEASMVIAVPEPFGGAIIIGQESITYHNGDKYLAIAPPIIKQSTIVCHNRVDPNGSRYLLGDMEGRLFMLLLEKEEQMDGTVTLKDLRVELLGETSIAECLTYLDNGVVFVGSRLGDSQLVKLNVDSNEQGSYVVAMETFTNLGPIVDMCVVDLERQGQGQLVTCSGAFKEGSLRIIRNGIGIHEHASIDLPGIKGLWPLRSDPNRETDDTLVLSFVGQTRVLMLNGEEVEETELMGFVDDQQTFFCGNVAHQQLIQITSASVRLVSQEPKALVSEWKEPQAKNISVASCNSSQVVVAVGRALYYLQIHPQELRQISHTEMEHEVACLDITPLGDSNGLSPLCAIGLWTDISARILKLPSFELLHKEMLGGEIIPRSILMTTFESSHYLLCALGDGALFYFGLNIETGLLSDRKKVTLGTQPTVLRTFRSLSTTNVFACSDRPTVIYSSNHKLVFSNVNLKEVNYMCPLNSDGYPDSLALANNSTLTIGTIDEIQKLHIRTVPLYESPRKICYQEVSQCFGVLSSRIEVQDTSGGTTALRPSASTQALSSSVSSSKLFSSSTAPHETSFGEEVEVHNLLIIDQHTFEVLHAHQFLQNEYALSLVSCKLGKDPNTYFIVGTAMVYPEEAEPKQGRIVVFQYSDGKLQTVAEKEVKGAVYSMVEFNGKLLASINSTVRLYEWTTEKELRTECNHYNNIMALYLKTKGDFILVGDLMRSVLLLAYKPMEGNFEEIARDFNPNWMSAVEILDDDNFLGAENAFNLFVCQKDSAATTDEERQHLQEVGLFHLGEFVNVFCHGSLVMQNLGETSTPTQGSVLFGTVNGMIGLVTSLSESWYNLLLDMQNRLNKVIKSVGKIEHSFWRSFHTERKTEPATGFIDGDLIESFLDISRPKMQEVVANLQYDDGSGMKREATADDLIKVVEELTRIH
T2 sequence (Q13422 whole entry): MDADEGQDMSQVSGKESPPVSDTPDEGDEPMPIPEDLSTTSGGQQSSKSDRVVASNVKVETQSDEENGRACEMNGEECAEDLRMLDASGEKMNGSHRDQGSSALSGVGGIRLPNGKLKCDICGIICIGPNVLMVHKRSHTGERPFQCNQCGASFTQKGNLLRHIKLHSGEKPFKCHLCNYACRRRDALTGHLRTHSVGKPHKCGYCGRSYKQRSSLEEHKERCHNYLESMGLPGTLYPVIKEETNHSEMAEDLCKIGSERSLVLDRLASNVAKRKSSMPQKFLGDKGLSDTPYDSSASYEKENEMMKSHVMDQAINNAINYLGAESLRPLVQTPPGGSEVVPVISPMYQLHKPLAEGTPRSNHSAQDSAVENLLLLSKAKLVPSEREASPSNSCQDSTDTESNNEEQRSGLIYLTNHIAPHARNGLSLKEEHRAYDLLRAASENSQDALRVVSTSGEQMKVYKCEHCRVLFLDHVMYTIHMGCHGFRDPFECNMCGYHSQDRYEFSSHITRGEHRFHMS
T2 sequence (Q96SW2 whole entry): as the sequence (Q96SW2 whole entry) above
T2 sequence (Q16531 whole entry partner): as the sequence (Q16531 whole entry partner) above
T4 sequence (Q9UKS7 whole entry): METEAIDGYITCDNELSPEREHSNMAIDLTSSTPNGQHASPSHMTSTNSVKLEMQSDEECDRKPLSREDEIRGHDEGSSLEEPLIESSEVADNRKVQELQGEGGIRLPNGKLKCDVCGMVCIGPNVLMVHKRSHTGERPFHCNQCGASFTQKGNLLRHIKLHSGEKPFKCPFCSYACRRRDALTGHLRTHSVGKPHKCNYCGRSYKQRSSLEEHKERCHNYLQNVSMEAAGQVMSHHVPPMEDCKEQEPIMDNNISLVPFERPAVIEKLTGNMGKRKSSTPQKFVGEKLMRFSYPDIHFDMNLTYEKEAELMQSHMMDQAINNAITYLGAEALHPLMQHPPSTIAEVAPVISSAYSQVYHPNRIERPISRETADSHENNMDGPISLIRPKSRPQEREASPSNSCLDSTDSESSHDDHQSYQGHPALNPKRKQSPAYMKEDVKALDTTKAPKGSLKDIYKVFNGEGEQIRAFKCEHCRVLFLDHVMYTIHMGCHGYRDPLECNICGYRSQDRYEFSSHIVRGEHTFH
T4 sequence (Q96SW2 whole entry): as the sequence (Q96SW2 whole entry) above
T4 sequence (Q16531 whole entry partner): as the sequence (Q16531 whole entry partner) above
T3 sequence (P15170 whole entry): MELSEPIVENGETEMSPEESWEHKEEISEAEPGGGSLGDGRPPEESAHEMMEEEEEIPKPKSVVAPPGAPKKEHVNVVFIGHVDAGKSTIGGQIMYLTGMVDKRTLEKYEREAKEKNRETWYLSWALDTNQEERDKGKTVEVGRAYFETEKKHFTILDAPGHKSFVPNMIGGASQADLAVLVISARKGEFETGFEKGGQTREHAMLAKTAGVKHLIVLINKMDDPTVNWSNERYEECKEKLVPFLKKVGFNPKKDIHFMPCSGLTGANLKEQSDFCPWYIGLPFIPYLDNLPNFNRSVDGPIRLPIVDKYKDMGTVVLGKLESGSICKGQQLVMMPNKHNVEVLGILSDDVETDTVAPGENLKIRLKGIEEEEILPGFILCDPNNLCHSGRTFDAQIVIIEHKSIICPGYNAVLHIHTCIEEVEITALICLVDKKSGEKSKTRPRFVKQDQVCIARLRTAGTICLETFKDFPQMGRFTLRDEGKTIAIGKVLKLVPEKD
T3 sequence (Q96SW2 whole entry): as the sequence (Q96SW2 whole entry) above
T3 sequence (Q16531 whole entry partner): as the sequence (Q16531 whole entry partner) above
T6 sequence (P30291 whole entry): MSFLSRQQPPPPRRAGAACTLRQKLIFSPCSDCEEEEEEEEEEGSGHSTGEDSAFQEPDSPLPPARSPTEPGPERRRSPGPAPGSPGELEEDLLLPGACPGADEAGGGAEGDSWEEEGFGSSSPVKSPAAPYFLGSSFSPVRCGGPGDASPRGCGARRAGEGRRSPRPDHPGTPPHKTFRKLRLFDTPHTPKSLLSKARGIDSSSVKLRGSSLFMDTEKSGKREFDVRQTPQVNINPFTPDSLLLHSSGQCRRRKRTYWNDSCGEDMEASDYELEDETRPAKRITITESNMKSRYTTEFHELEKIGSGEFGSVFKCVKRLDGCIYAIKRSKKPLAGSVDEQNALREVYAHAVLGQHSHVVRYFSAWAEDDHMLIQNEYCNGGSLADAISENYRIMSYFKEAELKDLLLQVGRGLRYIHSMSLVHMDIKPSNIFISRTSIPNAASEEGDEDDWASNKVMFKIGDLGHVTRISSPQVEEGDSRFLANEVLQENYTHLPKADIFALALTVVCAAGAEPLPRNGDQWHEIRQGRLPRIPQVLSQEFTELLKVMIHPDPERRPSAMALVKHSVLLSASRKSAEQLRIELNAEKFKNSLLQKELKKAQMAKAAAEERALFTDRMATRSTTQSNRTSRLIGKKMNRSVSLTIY
T6 sequence (Q96SW2 whole entry): as the sequence (Q96SW2 whole entry) above
T6 sequence (Q16531 whole entry partner): as the sequence (Q16531 whole entry partner) above

| Compound | IKZF3 substrate protein remaining % (IKZF3) | IKZF1 substrate protein remaining % (IKZF1) | GSPT1 substrate protein remaining % (GSPT1) | IKZF2 substrate protein remaining % (IKZF2) | CK1α substrate protein remaining % (CK1α) | WEE1 substrate protein remaining % (WEE1) |
| --- | --- | --- | --- | --- | --- | --- |
| Cc1nc(C2=CCN(Cc3ccc4c(c3)C(=O)N(N3CCC(=O)NC3=O)C4=O)CC2)c2c3c(sc2n1)CCC3 [GT-08435, 2-(2,4-dioxotetrahydropyrimidin-1(2H)-yl)-5-((4-(2-methyl-6,7-dihydro-5H-cyclopenta[4,5]thieno[2,3-d]pyrimidin-4-yl)-3,6-dihydropyridin-1(2H)-yl)methyl)isoindoline-1,3-dione] | A (0% ≤ substrate protein remaining % ≤80%) | A (0% ≤ substrate protein remaining % ≤80%) | A (0% ≤ substrate protein remaining % ≤80%) | B (80%< substrate protein remaining % ≤100%) | B (80%< substrate protein remaining % ≤100%) | A (0% ≤ substrate protein remaining % ≤80%) |
| Cc1nc(C2=CCN(Cc3ccc4c(c3)CN(N3CCC(=O)NC3=O)C4=O)CC2)c2c3c(sc2n1)CCC3 [GT-08437, 1-(5-((4-(2-methyl-6,7-dihydro-5H-cyclopenta[4,5]thieno[2,3-d]pyrimidin-4-yl)-3,6-dihydropyridin-1(2H)-yl)methyl)-1-oxoisoindolin-2-yl)dihydropyrimidine-2,4(1H,3H)-dione] | A (0% ≤ substrate protein remaining % ≤80%) | A (0% ≤ substrate protein remaining % ≤80%) | A (0% ≤ substrate protein remaining % ≤80%) | B (80%< substrate protein remaining % ≤100%) | B (80%< substrate protein remaining % ≤100%) | A (0% ≤ substrate protein remaining % ≤80%) |
| O=C1CCN(N2Cc3cc(CN4CC=C(c5ncc6ccsc6n5)CC4)ccc3C2=O)C(=O)N1 [GT-08438, 1-(1-oxo-5-((4-(thieno[2,3-d]pyrimidin-2-yl)-3,6-dihydropyridin-1(2H)-yl)methyl)isoindolin-2-yl)dihydropyrimidine-2,4(1H,3H)-dione] | A (0% ≤ substrate protein remaining % ≤80%) | A (0% ≤ substrate protein remaining % ≤80%) | A (0% ≤ substrate protein remaining % ≤80%) | B (80%< substrate protein remaining % ≤100%) | B (80%< substrate protein remaining % ≤100%) | A (0% ≤ substrate protein remaining % ≤80%) |
| O=C1CCN(N2Cc3cc(CN4CCN(c5nc(Cl)nc6c5SCC6)CC4)ccc3C2=O)C(=O)N1 [GT-08439, 1-(5-((4-(2-chloro-6,7-dihydrothieno[3,2-d]pyrimidin-4-yl)piperazin-1-yl)methyl)-1-oxoisoindolin-2-yl)dihydropyrimidine-2,4(1H,3H)-dione] | A (0% ≤ substrate protein remaining % ≤80%) | A (0% ≤ substrate protein remaining % ≤80%) | A (0% ≤ substrate protein remaining % ≤80%) | B (80%< substrate protein remaining % ≤100%) | B (80%< substrate protein remaining % ≤100%) | A (0% ≤ substrate protein remaining % ≤80%) |
| O=C1CCN(N2Cc3cc(CN4CCN(c5ncnc6ccsc56)CC4)ccc3C2=O)C(=O)N1 [GT-08443, 1-(1-oxo-5-((4-(thieno[3,2-d]pyrimidin-4-yl)piperazin-1-yl)methyl)isoindolin-2-yl)dihydropyrimidine-2,4(1H,3H)-dione] | B (80%< substrate protein remaining % ≤100%) | B (80%< substrate protein remaining % ≤100%) | B (80%< substrate protein remaining % ≤100%) | B (80%< substrate protein remaining % ≤100%) | B (80%< substrate protein remaining % ≤100%) | A (0% ≤ substrate protein remaining % ≤80%) |
| O=C1CCN(N2Cc3cc(CN4CCN(c5nc(Cl)nc6ccsc56)CC4)ccc3C2=O)C(=O)N1 [GT-08444, 1-(5-((4-(2-chlorothieno[3,2-d]pyrimidin-4-yl)piperazin-1-yl)methyl)-1-oxoisoindolin-2-yl)dihydropyrimidine-2,4(1H,3H)-dione] | B (80%< substrate protein remaining % ≤100%) | B (80%< substrate protein remaining % ≤100%) | B (80%< substrate protein remaining % ≤100%) | B (80%< substrate protein remaining % ≤100%) | B (80%< substrate protein remaining % ≤100%) | A (0% ≤ substrate protein remaining % ≤80%) |
| O=C1CCN(N2Cc3cc(CN4CCN(c5nc(N6CCOCC6)nc6ccsc56)CC4)ccc3C2=O)C(=O)N1 [GT-08446, 1-(5-((4-(2-morpholinothieno[3,2-d]pyrimidin-4-yl)piperazin-1-yl)methyl)-1-oxoisoindolin-2-yl)dihydropyrimidine-2,4(1H,3H)-dione] | A (0% ≤ substrate protein remaining % ≤80%) | B (80%< substrate protein remaining % ≤100%) | A (0% ≤ substrate protein remaining % ≤80%) | B (80%< substrate protein remaining % ≤100%) | B (80%< substrate protein remaining % ≤100%) | B (80%< substrate protein remaining % ≤100%) |
| O=C1CCN(N2C(=O)c3ccc(CN4CCN(c5nc(Cl)nc6c5SCC6)CC4)cc3C2=O)C(=O)N1 [GT-08448, 5-((4-(2-chloro-6,7-dihydrothieno[3,2-d]pyrimidin-4-yl)piperazin-1-yl)methyl)-2-(2,4-dioxotetrahydropyrimidin-1(2H)-yl)isoindoline-1,3-dione] | B (80%< substrate protein remaining % ≤100%) | B (80%< substrate protein remaining % ≤100%) | A (0% ≤ substrate protein remaining % ≤80%) | B (80%< substrate protein remaining % ≤100%) | B (80%< substrate protein remaining % ≤100%) | B (80%< substrate protein remaining % ≤100%) |
| O=C1CCN(N2C(=O)c3ccc(CN4CCN(c5nc(N6CCOCC6)nc6c5SCC6)CC4)cc3C2=O)C(=O)N1 [GT-08450, 2-(2,4-dioxotetrahydropyrimidin-1(2H)-yl)-5-((4-(2-morpholino-6,7-dihydrothieno[3,2-d]pyrimidin-4-yl)piperazin-1-yl)methyl)isoindoline-1,3-dione] | B (80%< substrate protein remaining % ≤100%) | B (80%< substrate protein remaining % ≤100%) | A (0% ≤ substrate protein remaining % ≤80%) | B (80%< substrate protein remaining % ≤100%) | B (80%< substrate protein remaining % ≤100%) | B (80%< substrate protein remaining % ≤100%) |
| O=C1CCN(N2C(=O)c3ccc(CN4CCN(c5nc6c(c(N7CCOCC7)n5)SCC6)CC4)cc3C2=O)C(=O)N1 [GT-08451, 2-(2,4-dioxotetrahydropyrimidin-1(2H)-yl)-5-((4-(4-morpholino-6,7-dihydrothieno[3,2-d]pyrimidin-2-yl)piperazin-1-yl)methyl)isoindoline-1,3-dione] | A (0% ≤ substrate protein remaining % ≤80%) | B (80%< substrate protein remaining % ≤100%) | B (80%< substrate protein remaining % ≤100%) | B (80%< substrate protein remaining % ≤100%) | A (0% ≤ substrate protein remaining % ≤80%) | B (80%< substrate protein remaining % ≤100%) |
| O=C1CCN(N2C(=O)c3ccc(CN4CCN(c5ncnc6ccsc56)CC4)cc3C2=O)C(=O)N1 [GT-08452, 2-(2,4-dioxotetrahydropyrimidin-1(2H)-yl)-5-((4-(thieno[3,2-d]pyrimidin-4-yl)piperazin-1-yl)methyl)isoindoline-1,3-dione] | A (0% ≤ substrate protein remaining % ≤80%) | A (0% ≤ substrate protein remaining % ≤80%) | B (80%< substrate protein remaining % ≤100%) | B (80%< substrate protein remaining % ≤100%) | A (0% ≤ substrate protein remaining % ≤80%) | A (0% ≤ substrate protein remaining % ≤80%) |
| O=C1CCN(N2C(=O)c3ccc(CN4CCN(c5nc(Cl)nc6ccsc56)CC4)cc3C2=O)C(=O)N1 [GT-08453, 5-((4-(2-chlorothieno[3,2-d]pyrimidin-4-yl)piperazin-1-yl)methyl)-2-(2,4-dioxotetrahydropyrimidin-1(2H)-yl)isoindoline-1,3-dione] | A (0% ≤ substrate protein remaining % ≤80%) | A (0% ≤ substrate protein remaining % ≤80%) | A (0% ≤ substrate protein remaining % ≤80%) | B (80%< substrate protein remaining % ≤100%) | A (0% ≤ substrate protein remaining % ≤80%) | B (80%< substrate protein remaining % ≤100%) |
